From the CheMixHub ionic liquid set

Assay: xn = mol fraction of the nth substance listed
Details: 101 kPa, frequency 2 MHz

O=S(=O)([O-])C(F)(F)F.[Li+] + O=S(=O)([N-]S(=O)(=O)C(F)(F)F)C(F)(F)F.[Li+] + O
electrical conductivity [S/m]
Details	273 K	278 K	283 K	288.1 K	293 K	298.1 K
x2 = 0.001799, x1 = 0.0005943	0.413	0.475	0.542	0.615	0.693	0.778
x2 = 0.005377, x1 = 0.001799	0.96	1.114	1.28	1.47	1.67	1.89
x2 = 0.00893, x1 = 0.003054	1.38	1.606	1.86	2.134	2.434	–
x2 = 0.01246, x1 = 0.004127	1.716	2.004	2.323	2.67	3.05	–
x2 = 0.01596, x1 = 0.005377	1.99	2.33	2.704	3.116	3.56	–
x2 = 0.01944, x1 = 0.006623	2.219	2.6	3.017	3.48	3.98	–
x2 = 0.05129, x1 = 0.0177	2.96	3.47	4.041	4.67	5.346	–
x2 = 0.08265, x1 = 0.02921	2.59	3.039	3.538	4.09	4.68	–
x2 = 0.112, x1 = 0.04029	1.98	2.329	2.718	3.147	3.616	–
x2 = 0.1395, x1 = 0.05129	1.422	1.68	1.97	2.29	2.648	–
x2 = 0.1654, x1 = 0.06203	0.985	1.17	1.39	1.625	1.89	–
x2 = 0.1898, x1 = 0.07238	0.666	0.802	0.957	1.133	1.331	–
x2 = 0.2128, x1 = 0.08265	0.443	0.54	0.652	0.782	0.929	–
x2 = 0.2345, x1 = 0.0927	0.291	0.36	0.441	0.535	0.644	–
x2 = 0.2551, x1 = 0.1024	0.189	0.237	0.295	0.364	0.445	–
x2 = 0.2745, x1 = 0.112	0.121	0.155	0.196	0.246	0.305	–
